Results: the supplement of paper PMC10307832

Assays:
Test in all cases: relative viability (nuclei count vs DMSO), 5 days (fraction); higher = more cells survive
NCI-H1915 = tested on: NCI-H1915
Method in brief: (§1)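 Relative viability is defined as nuclei in treated wells over nuclei in vehicle wells. Duplicate plates were run and medians reported. Lung cancer cell lines in 1536-well plates were dosed by pin tool one day after seeding, with one drug or with a fixed anchor-drug dose plus five library-drug doses (not always all listed) in √10 steps, and nuclei were counted after 5 days.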

NCI-H3122 = tested on: NCI-H3122
Method in brief: as §1

ChaGo-K-1 = tested on: ChaGo-K-1
Method in brief: as §1

NCI-H1755 = tested on: NCI-H1755
Method in brief: as §1

ABC-1 = tested on: ABC-1
Method in brief: as §1

HCC-15 = tested on: HCC-15
Method in brief: as §1

EMC-BAC-2 = tested on: EMC-BAC-2
Method in brief: as §1

HCC-78 = tested on: HCC-78
Method in brief: as §1

LXF-289 = tested on: LXF-289
Method in brief: as §1

NCI-H322M = tested on: NCI-H322M
Method in brief: as §1

NCI-H2126 = tested on: NCI-H2126
Method in brief: as §1

NCI-H441 = tested on: NCI-H441
Method in brief: as §1

HOP-62 = tested on: HOP-62
Method in brief: as §1

NCI-H1666 = tested on: NCI-H1666
Method in brief: as §1

CAL-12T = tested on: CAL-12T
Method in brief: as §1

NCI-H2085 = tested on: NCI-H2085
Method in brief: as §1

NCI-H1975 = tested on: NCI-H1975
Method in brief: as §1

NCI-H358 = tested on: NCI-H358
Method in brief: as §1

EPLC-272H = tested on: EPLC-272H
Method in brief: as §1

CCN(CC)CCCCNc1ncc2cc(-c3cc(OC)cc(OC)c3)c(NC(=O)NC(C)(C)C)nc2n1 + NC(=O)Nc1cc(-c2cccc(F)c2)sc1C(=O)N[C@H]1CCCNC1 [AZD7762] (partner 0.2 µM)
relative viability (NCI-H1915; first compound 0.01 µM): 0.655
relative viability (NCI-H1915; first compound 0.03162 µM): 0.753
relative viability (NCI-H1915; first compound 0.1 µM): 0.708
relative viability (NCI-H1915; first compound 0.3162 µM): 0.757
relative viability (NCI-H1915; first compound 1 µM): 0.736
relative viability (NCI-H3122; first compound 0.01 µM): 1
relative viability (NCI-H3122; first compound 0.03162 µM): 0.987
relative viability (NCI-H3122; first compound 0.1 µM): 1.08
relative viability (NCI-H3122; first compound 0.3162 µM): 0.971
relative viability (NCI-H3122; first compound 1 µM): 1.06
relative viability (ChaGo-K-1; first compound 0.01 µM): 0.885
relative viability (ChaGo-K-1; first compound 0.03162 µM): 0.927
relative viability (ChaGo-K-1; first compound 0.1 µM): 0.956
relative viability (ChaGo-K-1; first compound 0.3162 µM): 0.878
relative viability (ChaGo-K-1; first compound 1 µM): 0.853
relative viability (NCI-H1755; first compound 0.01 µM): 0.429
relative viability (NCI-H1755; first compound 0.03162 µM): 0.546
relative viability (NCI-H1755; first compound 0.1 µM): 0.525
relative viability (NCI-H1755; first compound 0.3162 µM): 0.421
relative viability (NCI-H1755; first compound 1 µM): 0.365
relative viability (ABC-1; first compound 0.01 µM): 0.766
relative viability (ABC-1; first compound 0.1 µM): 1.1
relative viability (ABC-1; first compound 0.3162 µM): 0.795
relative viability (ABC-1; first compound 1 µM): 0.825
relative viability (HCC-15; first compound 0.01 µM): 1.22
relative viability (HCC-15; first compound 0.03162 µM): 1.17
relative viability (HCC-15; first compound 0.1 µM): 1.22
relative viability (HCC-15; first compound 0.3162 µM): 1.37
relative viability (HCC-15; first compound 1 µM): 1.12
relative viability (EMC-BAC-2; first compound 0.03162 µM): 1.14
relative viability (EMC-BAC-2; first compound 0.1 µM): 1.3
relative viability (EMC-BAC-2; first compound 0.3162 µM): 1.16
relative viability (EMC-BAC-2; first compound 1 µM): 1.07
relative viability (HCC-78; first compound 0.01 µM): 0.394
relative viability (HCC-78; first compound 0.03162 µM): 0.647
relative viability (HCC-78; first compound 0.1 µM): 0.726
relative viability (HCC-78; first compound 0.3162 µM): 0.745
relative viability (HCC-78; first compound 1 µM): 0.549
relative viability (LXF-289; first compound 0.01 µM): 1.07
relative viability (LXF-289; first compound 0.03162 µM): 1.18
relative viability (LXF-289; first compound 0.1 µM): 1.16
relative viability (LXF-289; first compound 0.3162 µM): 0.946
relative viability (LXF-289; first compound 1 µM): 0.956
relative viability (NCI-H322M; first compound 0.01 µM): 0.578
relative viability (NCI-H322M; first compound 0.03162 µM): 0.52
relative viability (NCI-H322M; first compound 0.1 µM): 0.59
relative viability (NCI-H322M; first compound 0.3162 µM): 0.728
relative viability (NCI-H322M; first compound 1 µM): 0.559
relative viability (NCI-H2126; first compound 0.01 µM): 0.976
relative viability (NCI-H2126; first compound 0.03162 µM): 1
relative viability (NCI-H2126; first compound 0.1 µM): 1.15
relative viability (NCI-H2126; first compound 0.3162 µM): 1.13
relative viability (NCI-H2126; first compound 1 µM): 1.01
relative viability (NCI-H441; first compound 0.01 µM): 1.16
relative viability (NCI-H441; first compound 0.03162 µM): 1.16
relative viability (NCI-H441; first compound 0.1 µM): 1.1
relative viability (NCI-H441; first compound 0.3162 µM): 1.39
relative viability (NCI-H441; first compound 1 µM): 0.921
relative viability (HOP-62; first compound 0.01 µM): 0.343
relative viability (HOP-62; first compound 0.03162 µM): 0.666
relative viability (HOP-62; first compound 0.1 µM): 0.939
relative viability (HOP-62; first compound 0.3162 µM): 0.684
relative viability (HOP-62; first compound 1 µM): 0.431
relative viability (NCI-H1666; first compound 0.01 µM): 0.836
relative viability (NCI-H1666; first compound 0.03162 µM): 0.848
relative viability (NCI-H1666; first compound 0.1 µM): 0.889
relative viability (NCI-H1666; first compound 0.3162 µM): 1.12
relative viability (NCI-H1666; first compound 1 µM): 0.727
relative viability (CAL-12T; first compound 0.01 µM): 0.594
relative viability (CAL-12T; first compound 0.03162 µM): 0.564
relative viability (CAL-12T; first compound 0.1 µM): 0.796
relative viability (CAL-12T; first compound 0.3162 µM): 0.758
relative viability (CAL-12T; first compound 1 µM): 0.641
relative viability (NCI-H2085; first compound 0.01 µM): 0.991
relative viability (NCI-H2085; first compound 0.03162 µM): 1.05
relative viability (NCI-H2085; first compound 0.1 µM): 1.05
relative viability (NCI-H2085; first compound 0.3162 µM): 1.04
relative viability (NCI-H2085; first compound 1 µM): 0.912
relative viability (NCI-H1975; first compound 0.01 µM): 0.684
relative viability (NCI-H1975; first compound 0.03162 µM): 0.676
relative viability (NCI-H1975; first compound 0.1 µM): 0.776
relative viability (NCI-H1975; first compound 0.3162 µM): 0.818
relative viability (NCI-H1975; first compound 1 µM): 0.601
relative viability (NCI-H358; first compound 0.01 µM): 0.444
relative viability (NCI-H358; first compound 0.03162 µM): 0.52
relative viability (NCI-H358; first compound 0.1 µM): 0.593
relative viability (NCI-H358; first compound 0.3162 µM): 0.64
relative viability (NCI-H358; first compound 1 µM): 0.395
relative viability (EPLC-272H; first compound 0.01 µM): 0.199
relative viability (EPLC-272H; first compound 0.1 µM): 0.36
relative viability (EPLC-272H; first compound 0.3162 µM): 0.188
relative viability (EPLC-272H; first compound 1 µM): 0.198
